The source of these data is article PMC7321218, “Synthetic (E)-3-Phenyl-5-(phenylamino)-2-styryl-1,3,4-thiadiazol-3-ium Chloride Derivatives as Promising Chemotherapy Agents on Cell Lines Infected with HTLV-1” (Molecules, 2020).

In assay [1] the target is T1, human serum albumin (HSA) (Homo sapiens, UniProt P02768).
T1 construct: three analogous domains (I, II, and III) having amino acid residues of 1–195, 196–383, and 384–585
As to the kind of experiment: Time-resolved fluorescence decay of HSA. As to conditions: HSA 1.00 × 10^−5 M with 1.32 × 10^−5 M compound, ca 298 K. In kind it is binding. Here is the method:
The time-resolved fluorescence decay of a 3.0 mL solution of HSA (1.00 × 10^−5 M, in phosphate buffer solution-PBS) was measured in the absence and presence of the maximum concentration of each mesoionic used in the steady-state fluorescence studies (1.32 × 10^−5 M) at room temperature (ca 298 K).

Assay [2] addresses T1, human serum albumin (HSA). As to the kind of experiment: Steady-state fluorescence quenching of HSA. In kind it is binding. As to conditions: for Kd: Ka (modified Stern–Volmer binding constant); for ΔS°: van't Hoff, 296–310 K. Here is the method:
The steady-state fluorescence spectra were measured in the 290–450 nm range, at 296, 303, and 310 K, with the excitation wavelength at λ = 295 nm. To a 3.0 mL solution containing an appropriate concentration of HSA (1.00 × 10^−5 M), successive aliquots from a stock solution of each mesoionic under study (1.00 × 10^−3 M in DMSO) were added, with final concentrations of 0.17, 0.33, 0.50, 0.66, 0.83, 0.99, 1.15, and 1.32 × 10^−5 M. The addition was done manually by using a micro syringe. The inner filter correction for the observed steady-state fluorescence of HSA:mesoionic compounds was done in order to compensate for the absorption value of 5a–d at the excitation and emission wavelengths (295 and 340 nm, respectively) when applying Equation (1):(1) Fcor=Fobs10^[Aexc+Aem/2] where Fcor and Fobs are the corrected and observed steady-state fluorescence intensity values, respectively, while Aex and Aem represent absorbance values for each ligand at the excitation and emission wavelengths (λ = 295 and 340 nm, respectively).
The binding properties of each ligand toward HSA—Stern–Volmer quenching constant (KSV), bimolecular quenching rate constant (kq), modified Stern–Volmer binding constant (Ka), enthalpy change (ΔH°), entropy change (ΔS°), and Gibbs’ free energy change (ΔG°)—were calculated from the steady-state fluorescence quenching data according to Equations (2)–(5):(2) F0/F=1+kqτ0[Q]=1+KSV[Q] (3) F0/F0−F=1/f[Q]Ka+1/f (4) lnKa=−ΔH^0/RT+ΔS^0/R (5) ΔG^0=ΔH^0−TΔS^0 where F0 and F are the steady-state fluorescence intensities of HSA in the absence and presence of mesoionics, respectively. [Q] and τ0 are the ligand concentration and fluorescence lifetime, respectively, of the fluorophore in the absence of quencher (5.54 × 10^−9 s—experimental data, see Section 2.3.1). T, ƒ, and R are the temperature (296, 303, and 310 K), fraction of the initial fluorescence intensity that corresponds to fluorophore that is accessible to the quencher (f ≈ 1.0), and gas constant (8.3145 J/mol.K), respectively.

Assay [3] has as its system MT2 cells (HTLV-1-infected cell line). In words: MTT cell viability assay, MT2 cells. As to conditions: Homo sapiens, 72 h incubation. In kind it is cell-based. As to the method: (§1) The 1 × 10^5 cells/mL were incubated with or without compounds 5a, 5b, 5c, 5d or DMSO (Sigma-Aldrich/Merck, St. Louis, MO, USA) at 37 °C in humidified atmosphere with a 5% CO2. After 72 h, the cellular viability was assessed using 5 mg/mL of 3-(4,5-dimethylthiazol-2-yl)-2,5-diphenyltetrazolium bromide (MTT, Sigma-Aldrich/Merck). Cells were incubated for 3 h, centrifuged, and formazan crystal was dissolved with DMSO. Plates were read on a Paradigma® spectrofluorometer (Molecular Devices, San Jose, CA, USA) at a 490 nm wavelength. Cell death was also evaluated using Propidium Iodide (Biolegend) exclusion after a 24 h culture under the same conditions described above. The fluorescence was examined by FACSCalibus flow cytometry (BD) and 10,000 events were acquired for the experimental data. Analysis was accomplished using Summit V4.0 or FlowJo software (Becton, Dickingson and Company, Santa Barbara, CA, USA).
(§2) Statistical analysis was performed by one-way analysis of variance (ANOVA) and means were compared using a Tukey post-test. The IC50 values were obtained using nonlinear regression. Data were analyzed using GraphPad Prism-5 software (GraphPad software, San Diego, CA, USA), and p ≤ 0.05 was considered statistically significant.

For assay [4], the target named is T1, human serum albumin (HSA). As to the kind of experiment: Circular dichroism of HSA (secondary structure). The following applies: CD, 310 K, 1.32 × 10^−5 M compound; for α-helix % of HSA at 222 nm: HSA alone 80.1%; for α-helix % of HSA at 208 nm: HSA alone 86.7%. The format is binding. Here is the method: The CD spectra were recorded in the 200–250 nm range at 310 K for free serum albumin (1.00 × 10^−6 M) and for HSA with the higher concentration of each mesoionic used in the steady-state fluorescence studies (1.32 × 10^−5 M). Each spectrum was taken on the average of three scans. The obtained data were further converted into mean residue ellipticity (MRE) according to Equation (6):(6) MRE=θ/(10.n.l.Cp) where θ is the observed ellipticity (mdeg); n is the number of amino acid residues (585 to HSA), l is the length of the optical cuvette (1.0 cm), and Cp is the molar concentration of HSA (1.00 × 10^−6 M). The 5a–d induced helical content perturbation at 208 and 222 nm were calculated using Equation (7):(7) (A) α−helix%(−MRE208−4000)/(33000−4000)×100(B) α−helix%(−MRE222−2340)/(30300)×100 where MRE208 and MRE222 are the significant molar residual ellipticities (deg.cm^2/dmol) at 208 nm and 222 nm, respectively.

In assay [5] the test system is C91/PL cells (HTLV-1-infected). As to the kind of experiment: MTT cell viability assay, C91/PL cells. In kind it is cell-based. As to conditions: 72 h incubation. As to the method:
as §1, §2

For assay [6], the target named is T1, human serum albumin (HSA). As to the kind of experiment: Zeta potential of HSA (surface perturbation). As to conditions: for ζ (zeta potential of HSA): HSA with 1.32 × 10^−5 M compound, HSA alone −9.15 ± 1.79; for Conductance: ZP measurement, HSA with compound. The format is binding. Here is the method:
All zeta potential (ZP) measurements were performed with 10 runs at 298 K and results were reported in terms of ZP ± SD. The ZP was measured for the HSA solution (1.0 × 10^−5 M in PBS solution) without and in the presence of the mesoionic compounds at the maximum concentration used in the steady-state fluorescence experiments (1.32 × 10^−5 M) at room temperature (ca. 298 K).

The test system of the next assay is Jurkat cells. As to the kind of experiment: MTT cell viability assay, Jurkat cells. The following applies: Homo sapiens, 72 h incubation. In kind it is cell-based. Here is the method:
as §1, §2

The structures appear in SMILES notation.

T1 sequence (P02768 25-609): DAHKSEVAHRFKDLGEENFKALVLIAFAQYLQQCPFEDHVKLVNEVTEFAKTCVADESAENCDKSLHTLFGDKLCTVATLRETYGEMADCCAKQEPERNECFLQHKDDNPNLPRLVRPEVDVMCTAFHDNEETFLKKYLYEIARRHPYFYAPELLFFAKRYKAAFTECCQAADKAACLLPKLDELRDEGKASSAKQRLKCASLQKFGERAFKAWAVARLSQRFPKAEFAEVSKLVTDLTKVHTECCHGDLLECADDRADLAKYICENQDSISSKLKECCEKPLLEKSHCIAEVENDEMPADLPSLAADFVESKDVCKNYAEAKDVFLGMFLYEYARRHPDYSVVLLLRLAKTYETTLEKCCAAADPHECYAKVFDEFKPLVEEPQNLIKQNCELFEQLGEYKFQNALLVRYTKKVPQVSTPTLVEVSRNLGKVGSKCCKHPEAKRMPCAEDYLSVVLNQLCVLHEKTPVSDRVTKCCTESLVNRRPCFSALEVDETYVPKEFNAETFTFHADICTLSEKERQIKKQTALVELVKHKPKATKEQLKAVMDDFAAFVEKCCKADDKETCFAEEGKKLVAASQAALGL

For the compound `Cc1ccc(Nc2n[n+](-c3ccccc3)c(/C=C/c3ccccc3)s2)cc1.[Cl-]` [5a, (E)-3-Phenyl-5-(4′-methylphenylamino)-2-styryl-1,3,4-thiadiazol-3-ium chloride], in assay [1], the “Relative % of τ1” value came to 26.4%, the “Relative % of τ2” value came out at 73.6%, the “τ1 (HSA fluorescence lifetime)” value is 1.61 ± 0.13 ns and the “τ2 (HSA fluorescence lifetime)” value came out at 5.38 ± 0.13 ns. Besides, in assay [2] (296 K), the “KSV (Stern–Volmer quenching constant)” value is recorded as 1.19 ± 0.03 × 10^5 M^−1, the “kq (bimolecular quenching rate constant)” value worked out at 2.15e+13 M⁻¹ s⁻¹, the “ΔG°” value is -27.7 kJ/mol and the Kd is 13 µM. Besides, in assay [2] (303 K), the “KSV (Stern–Volmer quenching constant)” value is reported as 1.20 ± 0.03 × 10^5 M^−1, the “kq (bimolecular quenching rate constant)” value was 2.16e+13 M⁻¹ s⁻¹, the “ΔG°” value is -28.3 kJ/mol and binding was put at a Kd of 13.3 µM. Further, in assay [2] (310 K), the “KSV (Stern–Volmer quenching constant)” value is reported as 1.21 ± 0.03 × 10^5 M^−1, the “kq (bimolecular quenching rate constant)” value is 2.18e+13 M⁻¹ s⁻¹, the “ΔG°” value is -28.9 kJ/mol and the Kd is 13.7 µM. The “ΔS°” value in assay [2] was 8.46 ± 0.05 × 10^−2 kJ.mol^−1K^−1. In assay [3], this compound came in with an IC50 of 1.51 µM. For the same compound, in assay [4], the “α-helix % of HSA at 222 nm” value amounted to 78.5% and the “α-helix % of HSA at 208 nm” value came to 84.0%. Besides, it took 2.82 µM to reach half-maximal inhibition in assay [5] (IC50). Also, in assay [6], the “ζ (zeta potential of HSA)” value is −8.62 ± 1.40 mV and the Conductance was 29,615 µs. Moreover, the IC50 in the assay with Jurkat cells turned out to be 2150 nM.
For the compound `Clc1ccc(Nc2n[n+](-c3ccccc3)c(/C=C/c3ccccc3)s2)cc1.[Cl-]` [5c, (E)-3-Phenyl-5-(4′-chlorophenylamino)-2-styryl-1,3,4-thiadiazol-3-ium chloride], in assay [1], the “Relative % of τ1” value came out at 33.0%, the “Relative % of τ2” value was 67.0%, the “τ1 (HSA fluorescence lifetime)” value is reported as 1.68 ± 0.11 ns and the “τ2 (HSA fluorescence lifetime)” value came to 5.66 ± 0.16 ns. For the same compound, in assay [2] (296 K), the “KSV (Stern–Volmer quenching constant)” value was 1.30 ± 0.03 × 10^5 M^−1; the “kq (bimolecular quenching rate constant)” value turned out to be 2.35e+13 M⁻¹ s⁻¹; the “ΔG°” value was -28.1 kJ/mol; the affinity, expressed as Kd, was 11.7 µM. Besides, in assay [2] (303 K), the “KSV (Stern–Volmer quenching constant)” value is 1.36 ± 0.04 × 10^5 M^−1, the “kq (bimolecular quenching rate constant)” value is 2.45e+13 M⁻¹ s⁻¹, the “ΔG°” value was -28.9 kJ/mol and binding was characterised by a dissociation constant (Kd) of 11 µM. Moreover, in assay [2] (310 K), the “KSV (Stern–Volmer quenching constant)” value is given as 1.40 ± 0.03 × 10^5 M^−1, the “kq (bimolecular quenching rate constant)” value stood at 2.53e+13 M⁻¹ s⁻¹, the “ΔG°” value is -29.7 kJ/mol and binding was put at a Kd of 10.4 µM. In addition, in assay [2], the “ΔS°” value is recorded as 11.6 ± 0.1 × 10^−2 kJ.mol^−1K^−1. Also, in assay [3], the IC50 was 6.15 µM. Besides, in assay [4], the “α-helix % of HSA at 222 nm” value came to 78.8% and the “α-helix % of HSA at 208 nm” value is 83.8%. In assay [5], this compound showed an IC50 of 4.5 µM. In assay [6], the “ζ (zeta potential of HSA)” value is recorded as −8.77 ± 1.52 mV and the Conductance is on record as 29,622 µs. Moreover, the IC50 in the assay with Jurkat cells was 5600 nM.
In the case of `Brc1ccc(Nc2n[n+](-c3ccccc3)c(/C=C/c3ccccc3)s2)cc1.[Cl-]` [5d, (E)-3-Phenyl-5-(4′-bromophenylamino)-2-styryl-1,3,4-thiadiazol-3-ium chloride], in assay [1], the “Relative % of τ1” value is given as 29.8%, the “Relative % of τ2” value is recorded as 70.2%, the “τ1 (HSA fluorescence lifetime)” value amounted to 1.65 ± 0.10 ns and the “τ2 (HSA fluorescence lifetime)” value came out at 5.37 ± 0.13 ns. For the same compound, in assay [2] (296 K), the “KSV (Stern–Volmer quenching constant)” value is 1.45 ± 0.02 × 10^5 M^−1, the “kq (bimolecular quenching rate constant)” value is 2.61e+13 M⁻¹ s⁻¹, the “ΔG°” value was -27.9 kJ/mol and the dissociation constant (Kd) was 11.5 µM. For the same compound, in assay [2] (303 K), the “KSV (Stern–Volmer quenching constant)” value is given as 1.54 ± 0.03 × 10^5 M^−1, the “kq (bimolecular quenching rate constant)” value turned out to be 2.79e+13 M⁻¹ s⁻¹, the “ΔG°” value is -28.7 kJ/mol and the Kd is 11.1 µM. Also, in assay [2] (310 K), the “KSV (Stern–Volmer quenching constant)” value was 1.60 ± 0.03 × 10^5 M^−1, the “kq (bimolecular quenching rate constant)” value came to 2.89e+13 M⁻¹ s⁻¹, the “ΔG°” value is -29.4 kJ/mol and binding was characterised by a dissociation constant (Kd) of 10.8 µM. Further, in assay [2], the “ΔS°” value is reported as 10.6 ± 0.1 × 10^−2 kJ.mol^−1K^−1. The compound also displayed an IC50 in assay [3] of 7.7 µM. Besides, in assay [4], the “α-helix % of HSA at 222 nm” value worked out at 77.7% and the “α-helix % of HSA at 208 nm” value was found to be 82.0%. In assay [5], this compound showed an IC50 of 5.25 µM. In assay [6], the “ζ (zeta potential of HSA)” value was −8.69 ± 1.50 mV and the Conductance was 29,638 µs. This compound had an IC50 in the assay with Jurkat cells of 2270 nM.
